Assay [1] has as its system acyl-coenzyme A: cholesterol acyltransferase. The assay is described as follows: Inhibition of ACAT / intracellular cholesterol esterification in vitro (procedure of Ross et al.). The format is cell-based. As to conditions: for IC50: read-out: IC50.
The test system of another assay is cholesterol absorption. In words: 14C-cholesterol absorption in normal rats (oral gavage). It is filed as in vivo. As to conditions: Rattus norvegicus; for ED50: normal fed rats. The procedure: Representative compounds were further tested in vivo to establish the percent inhibition of cholesterol absorption. In this study, normal rats were dosed (oral gavage) with ^14 C-cholesterol plus the test compound. Blood samples taken at six hours and/or intermittently up to twenty-four hours were analyzed and the percent inhibition of cholesterol absorption was calculated.

The test system of a further assay is plasma cholesterol. In words: Plasma cholesterol in cholesterol-cholic acid fed rats. The format is in vivo. Conditions: Rattus norvegicus, oral gavage; for ED50: fifty percent reduction of plasma cholesterol. The procedure:
In addition, representative compounds were studied in vivo in cholesterol-cholic acid fed rats to determine the percent decrease of cholesterol in their plasma. This study involves rats which are, prior to testing, trained for one week to eat over a four hour time period each day. Upon initiation of the experiment, the rats diet is supplemented with 1.0 percent cholesterol and 0.25 percent cholic acid. The rats are dosed with the test compound by oral gavage just prior to adjust following the four hour feeding period. This is repeated for four days. On the fifth day, the rats are sacrificed and the total plasma cholesterol content is determined. The percent decrease in elevated plasma cholesterol levels is calculated in comparison with […].

Where [2] appears, read: 96 h, four days, read-out: % Decrease in Plasma Cholesterol.
[3] abbreviates: normal rats, read-out: % Inhibition of Absorption.

This is an account of results in patent US5399697A, “N,N',N'-trisubstituted-5-bisaminomethylene-1,3-dioxane-4,6-dione inhibitors of acyl-CoA:cholesterol-acyl transferase” (American Home Products Corporation, priority 1993, dated 1995).

Structures are written as SMILES. Read-outs that look alike come from different tables or passages of the source.

As for `CCCCCC(C)N(Cc1ccc(C(C)(C)C)cc1)C(Nc1ccc(N(C)C)cc1)=C1C(=O)OC(C)(C)OC1=O` (stereo not shown) [Compound 21, 5-[[[4-(Dimethylamino)phenyl]amino][[[4-(1,1-dimethylethyl)phenyl]methyl](1-methylhexyl)-amino]methylene]-2,2-dimethyl-1,3-dioxane-4,6-dione], the “% Inhibition” value in assay [1] (25 μM) is recorded as 98%. In addition, in assay [1], the IC50 was 250 nM. For the same compound, the change in vivo at 75 mg/kg in the assay with cholesterol absorption (normal rats, 75 mg/kg, read-out: % Inhibition of Absorption) was -83%. For the same compound, the change in vivo at 100 mg/kg in the assay with plasma cholesterol (setting [2]) is -78%.

As to `CCCCCC(C)N(Cc1ccc(CC(C)(C)C)cc1)C(Nc1ccc(OC)cc1OC)=C1C(=O)OC(C)(C)OC1=O` (stereo not shown) [Compound 7, 5-[[(2,4-Dimethoxyphenyl)amino][[[4-(2,2-dimethylpropyl)phenyl]methyl](1-methylhexyl)amino]methylene]-2,2-dimethyl-1,3-dioxane-4,6-dione], the “% Inhibition” value in assay [1] (25 μM) is recorded as 99%. The concentration for half-maximal inhibition (IC50) in assay [1] was determined as 830 nM. Further, the ED50 worked out at 3 mg/kg in the assay with cholesterol absorption and 6 mg/kg with plasma cholesterol. For the same compound, the change in vivo at 100 mg/kg in the assay with plasma cholesterol (96 h, heading: % Decrease in Plasma Cholesterol, four days) is -100%.

For `CCCCCC(C)N(Cc1ccc(C(C)(C)C)cc1)C(Nc1ccc(OCCCC)cc1)=C1C(=O)OC(C)(C)OC1=O` (stereo not shown) [Compound 27, 5-[[(4-Butoxyphenyl)amino][[[4-(1,1-dimethylethyl)phenyl]methyl](1-methylhexyl)amino]-methylene]-2,2-dimethyl-1,3-dioxane-4,6-dione], in assay [1] (25 μM), the “% Inhibition” value is on record as 96%. Further, in assay [1], the 50% inhibitory concentration (IC50) was 230 nM. Moreover, in the assay with cholesterol absorption (setting [3]), the change in vivo at 20 mg/kg was -58%. In addition, in the assay with plasma cholesterol (setting [2]), the change in vivo at 40 mg/kg is -31%.

For the compound `CCCCCC(C)N(Cc1ccc(CC(C)(C)C)cc1)C(Nc1ccc(N(C)C)cc1)=C1C(=O)OC(C)(C)OC1=O` (stereo not shown) [Compound 37], the “% Inhibition” value in assay [1] (25 μM) was 99%. Further, the IC50 in assay [1] was found to be 690 nM. Besides, the change in vivo at 50 mg/kg in the assay on cholesterol absorption (setting [3]) is -85%. For the same compound, in the assay with plasma cholesterol (setting [2]), the change in vivo at 40 mg/kg is -72%. The median effective dose (ED50) with plasma cholesterol came out at 18 mg/kg.

Consider `CCCCCC(C)N(Cc1ccc(CC(C)C)cc1)C(Nc1ccc(OC)cc1OC)=C1C(=O)OC(C)(C)OC1=O` (stereo not shown) [Compound 32, 5-[[(2,4-Dimethoxyphenyl)amino][(1-methylhexyl)[[4-(2-methylpropyl)phenyl]methyl]amino]-methylene]-2,2-dimethyl-1,3-dioxane-4,6-dione], for which the “% Inhibition” value in assay [1] (25 μM) worked out at 98%. In addition, the IC50 in assay [1] turned out to be 240 nM. For the same compound, the median effective dose (ED50) is 4 mg/kg in the assay on cholesterol absorption and 17 mg/kg in the assay with plasma cholesterol. In the assay on cholesterol absorption (setting [3]), the change in vivo at 20 mg/kg is -79%. The change in vivo at 60 mg/kg in the assay with plasma cholesterol (96 h, heading: % Decrease in Plasma Cholesterol, four days, 60 mg/kg) was -97%.

With `CC(C)CCCC(C)N(Cc1ccc(CC(C)C)cc1)C(Nc1ccc(N(C)C)cc1)=C1C(=O)OC(C)(C)OC1=O` (stereo not shown) [Compound 42], in assay [1] (25 μM), the “% Inhibition” value came to 98%. Besides, the IC50 in assay [1] was found to be 270 nM. This compound also had a 50% effective dose (ED50) in the assay with cholesterol absorption of 5 mg/kg. Also, in the assay with plasma cholesterol (setting [2]), the change in vivo at 40 mg/kg is -63%.

Take `CCCCCCCN(Cc1ccc(CC(C)(C)C)cc1)C(Nc1ccc(OC)cc1OC)=C1C(=O)OC(C)(C)OC1=O` [Compound 48, 5-[[(2,4-Dimethoxyphenyl)amino][[[4-(2,2-dimethylpropyl)phenyl]methyl]heptylamino]-methylene]-2,2-dimethyl-1,3-dioxane-4,6-dione]: the “% Inhibition” value in assay [1] (25 μM) turned out to be 94%. Moreover, the IC50 in assay [1] came to 2900 nM. Further, the values for the ED50 in the assay with cholesterol absorption and in the assay with plasma cholesterol were 11 mg/kg and 25 mg/kg, respectively. Also, the change in vivo at 200 mg/kg in the assay with cholesterol absorption (setting [3]) was -84%. For the same compound, the change in vivo at 100 mg/kg in the assay on plasma cholesterol (setting [2]) is -60%.

With `CCCCCCCN(Cc1ccc(C(C)(C)C)cc1)C(Nc1ccc(OC)cc1OC)=C1C(=O)OC(C)(C)OC1=O` [Compound 2], the “% Inhibition” value in assay [1] (50 μM) is listed as 85%. In addition, the IC50 in assay [1] is 900 nM. Moreover, the 50% effective dose (ED50) in the assay with cholesterol absorption is 44 mg/kg; in the assay with plasma cholesterol, 99 mg/kg. In the assay on cholesterol absorption (setting [3]), the change in vivo at 200 mg/kg is -88%.

Turning to `CCCCCC(C)N(Cc1ccc(CC(C)(C)C)cc1)C(Nc1c(C)cc(N(C)C)cc1C)=C1C(=O)OC(C)(C)OC1=O` (stereo not shown) [Compound 33, 5-[[[2,6-Dimethyl-4-(dimethylamino)phenyl]amino][[[4-(2,2-dimethylpropyl)phenyl]methyl](1-methylhexyl)amino]methylene]-2,2-dimethyl-1,3-dioxane-4,6-dione], the “% Inhibition” value in assay [1] (25 μM) turned out to be 98%. The IC50 in assay [1] was 380 nM. The change in vivo at 50 mg/kg with cholesterol absorption (setting [3]) was -86%. Also, the change in vivo at 20 mg/kg in the assay on plasma cholesterol (setting [2]) was -30%.

Turning to `COc1ccc(NC(=C2C(=O)OC(C)(C)OC2=O)N(Cc2ccc(CC(C)C)cc2)C(C)CCCC(C)(C)O)c(OC)c1` (stereo not shown) [Compound 52, 5-[[(2,4-Dimethoxyphenyl)amino][(5-hydroxy-1,5-dimethylhexyl)[[4-(2-methylpropyl)phenyl]-methyl]amino]methylene]-2,2-dimethyl-1,3-dioxane-2,4-dione], in assay [1] (25 μM), the “% Inhibition” value amounted to 89%. Besides, the IC50 in assay [1] was 5600 nM. In addition, in the assay on cholesterol absorption (setting [3]), the change in vivo at 10 mg/kg is -29%.

For `CCCCCC(C)N(Cc1ccc(CC(C)(C)C)cc1)C(Nc1ccc(N(C)C)cc1C)=C1C(=O)OC(C)(C)OC1=O` (stereo not shown) [Compound 47], the “% Inhibition” value in assay [1] (25 μM) is on record as 98%. In addition, the 50% inhibitory concentration (IC50) in assay [1] turned out to be 260 nM. Also, the ED50 was determined as 3 mg/kg in the assay with cholesterol absorption and 16 mg/kg with plasma cholesterol. Also, the change in vivo at 10 mg/kg with cholesterol absorption (setting [3]) is -83%.

Turning to `CC1(C)OC(=O)C(=C(Nc2cc(C(C)(C)C)c(O)c(C(C)(C)C)c2)Nc2cnc3ccccc3c2)C(=O)O1` [Compound 81, 5-[(3,5-Di-tert-butyl-4-hydroxy-phenylamino)-(quinolin-3-ylamino)-methylene]-2,2-dimethyl-[1,3]dioxane-4,6-dione], the “% Inhibition” value in assay [1] (50 μM) is listed as 90%. The change in vivo at 3 mg/kg in the assay with cholesterol absorption (normal rats, 3 mg/kg, read-out: % Inhibition of Absorption) is -90%.

As to `CCCCCc1ccc(CN(C(Nc2ccc(OC)cc2OC)=C2C(=O)OC(C)(C)OC2=O)C(C)CCCCC)cc1` (stereo not shown) [Compound 40], the “% Inhibition” value in assay [1] (25 μM) was found to be 99%. In assay [1], the IC50 is 360 nM. Also, the values for the 50% effective dose (ED50) in the assay on cholesterol absorption and in the assay on plasma cholesterol were 2 mg/kg and 7 mg/kg, respectively. Also, the change in vivo at 10 mg/kg with cholesterol absorption (setting [3]) is -69%. Moreover, in the assay with plasma cholesterol (setting [2]), the change in vivo at 40 mg/kg is -78%.

Regarding `CCCCCC(C)N(Cc1ccc(CC(C)C)cc1)C(Nc1ccc(N(C)C)cc1C)=C1C(=O)OC(C)(C)OC1=O` (stereo not shown) [Compound 46], the “% Inhibition” value in assay [1] (25 μM) worked out at 98%. In addition, the IC50 in assay [1] is 350 nM. For the same compound, the values for the ED50 in the assay on cholesterol absorption and in the assay on plasma cholesterol were 2 mg/kg and 8 mg/kg, respectively. The change in vivo at 10 mg/kg with cholesterol absorption (setting [3]) was -82%. Further, the change in vivo at 20 mg/kg in the assay with plasma cholesterol (setting [2]) was -70%.

Consider `CCCCCc1ccc(CN(C(Nc2ccc(N(C)C)cc2)=C2C(=O)OC(C)(C)OC2=O)C(C)CCCCC)cc1` (stereo not shown) [Compound 41, 5-[[[4-(Dimethylamino)phenyl]amino][(1-methylhexyl)[(4-pentylphenyl)methyl]amino]-methylene]-2,2-dimethyl-1,3-dioxane-4,6-dione], for which the “% Inhibition” value in assay [1] (25 μM) came to 98%. The IC50 in assay [1] came to 260 nM. The ED50 stood at 3 mg/kg in the assay with cholesterol absorption and 7 mg/kg in the assay with plasma cholesterol. The change in vivo at 40 mg/kg in the assay with plasma cholesterol (setting [2]) is -89%.

As for `CCCCCC(C)N(Cc1ccc(C(C)(C)C)cc1)C(Nc1ccc(OC)cc1OC)=C1C(=O)OC(C)(C)OC1=O` (stereo not shown) [Compound 4, 5-[[(2,4-Dimethoxophenyl)amino][[[4-(1,1-dimethylethyl)phenyl]methyl](1-methylhexyl)amino]-methylene]-2,2-dimethyl-1,3-dioxane-4,6-dione], the “% Inhibition” value in assay [1] (25 μM) amounted to 99%. Moreover, in assay [1], the half-maximal inhibitory concentration (IC50) is 260 nM. In addition, the values for the 50% effective dose (ED50) in the assay with cholesterol absorption and in the assay on plasma cholesterol were 10 mg/kg and 64 mg/kg, respectively. Besides, the change in vivo at 200 mg/kg with cholesterol absorption (setting [3]) was -93%. Further, the change in vivo at 100 mg/kg with plasma cholesterol (setting [2]) was -98%.

Regarding `COc1ccc(NC(=C2C(=O)OC(C)(C)OC2=O)N(Cc2ccc(CC(C)C)cc2)C2CCN(CCc3ccccc3)CC2)c(OC)c1` [Compound 8, 5-[[(2,4-Dimethoxyphenyl)amino][[[4-(2-methylpropyl)phenyl]methyl][1-(phenylethyl)-4-piperidinyl]amino]methylene]-2,2-dimethyl-1,3-dioxane-4,6-dione], in assay [1] (25 μM), the “% Inhibition” value worked out at 85%. In assay [1], the IC50 was found to be 5600 nM. Besides, the change in vivo at 10 mg/kg in the assay on cholesterol absorption (setting [3]) is -16%.

`CCCCCCCN(Cc1ccc(C(C)(C)C)cc1)C(Nc1c(OC)cc(OC)cc1OC)=C1C(=O)OC(C)(C)OC1=O` [Compound 59, 5-[[[[4-(1,1-Dimethylethyl)phenyl]methyl]heptylamino][(2,4,6-trimethoxyphenyl)amino]-methylene]-2,2-dimethyl-1,3-dioxane-4,6-dione]: the “% Inhibition” value in assay [1] (25 μM) was found to be 94%. Moreover, in assay [1], the IC50 turned out to be 700 nM. Also, in the assay with cholesterol absorption (setting [3]), the change in vivo at 200 mg/kg is -21%.

With `CC(C)Cc1ccc(CN(C(Nc2ccc(N(C)C)cc2)=C2C(=O)OC(C)(C)OC2=O)C(C)CCCC(C)(C)O)cc1` (stereo not shown) [Compound 53], in assay [1] (25 μM), the “% Inhibition” value was found to be 81%. In addition, the IC50 in assay [1] stood at 5200 nM. The change in vivo at 10 mg/kg with cholesterol absorption (setting [3]) is -50%.

A word on the % Inhibition: it is the relative decrease from the control value, in per cent. A low value points to a response near the control. As a reminder, the IC50 is the concentration needed to halve the response being measured. What is called ED50 is the midpoint of the dose-response relation. The low end stands for greater potency, the high end for weaker potency.
